SMILES strings stand for the structures. Where a name gives a salt, the structure may show the parent alone.

One assay addresses T1, SHP2 (Homo sapiens, UniProt Q06124).
T1 sequence (Q06124 1-593): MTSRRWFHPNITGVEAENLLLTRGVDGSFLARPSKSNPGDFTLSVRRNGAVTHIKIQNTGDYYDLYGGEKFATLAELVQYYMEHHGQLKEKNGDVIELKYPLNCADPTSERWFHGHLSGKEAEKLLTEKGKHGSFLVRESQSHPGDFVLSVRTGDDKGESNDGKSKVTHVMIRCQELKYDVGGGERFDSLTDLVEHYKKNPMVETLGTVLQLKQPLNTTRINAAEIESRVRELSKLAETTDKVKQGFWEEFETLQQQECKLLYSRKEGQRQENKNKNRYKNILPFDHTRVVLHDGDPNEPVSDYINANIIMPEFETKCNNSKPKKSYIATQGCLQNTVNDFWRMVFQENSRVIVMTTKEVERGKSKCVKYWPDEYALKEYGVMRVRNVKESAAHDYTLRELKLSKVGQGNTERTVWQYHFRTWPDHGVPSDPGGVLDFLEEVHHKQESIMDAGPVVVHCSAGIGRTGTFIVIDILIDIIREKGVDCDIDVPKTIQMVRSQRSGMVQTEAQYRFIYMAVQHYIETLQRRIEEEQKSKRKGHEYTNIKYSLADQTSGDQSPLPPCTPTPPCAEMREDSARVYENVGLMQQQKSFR
Kind of assay: SHP2 allosteric inhibition assay (DiFMUP prompt fluorescence). The note with it: Table 1; 0.25 nM SHP2, 0.5 μM IRS1_pY1172(dPEG8)pY1222 peptide, DiFMUP 100 μM. Format: biochemical. The text has this:
SHP2 Allosteric Inhibition Assay.
SHP2 is allosterically activated through binding of bis-tyrosyl-phosphorylated peptides to its Src Homology 2 (SH2) domains. The latter activation step leads to the release of the auto-inhibitory interface of SHP2, which in turn renders the SHP2 protein tyrosine phosphatase (PTP) active and available for substrate recognition and reaction catalysis. The catalytic activity of SHP2 was monitored using the surrogate substrate DiFMUP in a prompt fluorescence assay format.
The inhibitor dose response curves were analyzed using normalized IC50 regression curve fitting with control based normalization.
In turn, `Cc1c(-c2ccccc2Cl)nc2sc(N3CCC(C)(CN)CC3)nn12` [Compound A7, (1-(6-(2-chlorophenyl)-5-methylimidazo[2,1-b][1,3,4]thiadiazol-2-yl)-4-methylpiperidin-4-yl)methanamine formate] yielded an IC50 of less than 5 µM.

Consider `CC1(CN)CCN(c2nn3c(N)c(-c4ccccc4Cl)nc3s2)C1` (stereo not shown) [Compound A6, 2-(3-(aminomethyl)-3-methylpyrrolidin-1-yl)-6-(2-chlorophenyl)imidazo[2,1-b][1,3,4]thiadiazol-5-amine], for which the IC50 is 5 to 20 µM.

The assay is the same for the next values; noted with them: Table 2; 0.25 nM SHP2, 0.5 μM IRS1_pY1172(dPEG8)pY1222 peptide, DiFMUP 100 μM.
`Cc1nc(N2CCC(C)(CN)C2)sc1-c1ccccc1Cl` (stereo not shown) [Compound B4, ((1-(5-(2-chlorophenyl)-4-methylthiazol-2-yl)-3-methylpyrrolidin-3-yl)methanamine formate] came in with a 50% inhibitory concentration (IC50) of more than 100 µM.

For `CC1(N)CCN(c2nc(N)c(-c3cccc(Cl)c3Cl)s2)CC1` [Compound B1, 2-(4-amino-4-methyl-1-piperidyl)-5-(2,3-dichlorophenyl)thiazol-4-amine, dihydrochloride], the IC50 was less than 100 µM.

In turn, `CC1(CN)CCN(c2ncc(C(=O)N3CCCc4ncccc43)s2)C1` (stereo not shown) [Compound B2, (2-(3-(aminomethyl)-3-methylpyrrolidin-1-yl)thiazol-5-yl)(3,4-dihydro-1,5-naphthyridin-1(2H)-yl)methanone] came in with a half-maximal inhibitory concentration (IC50) of more than 100 µM.

Staying with this assay, now noted: Table 3; 0.25 nM SHP2, 0.5 μM IRS1_pY1172(dPEG8)pY1222 peptide, DiFMUP 100 μM.
Regarding `O=C(Nc1cc(C(F)(F)F)cc(C(F)(F)F)c1)c1csc(-c2cccc(Cl)c2Cl)n1` [Compound C3], the IC50 was in the range of 500 to 1000 µM.

As for `COc1cc(-c2nc(CSc3nncs3)cs2)ccc1O` [Compound C4], the IC50 is less than 500 µM.

As to `COc1ccc(-c2nc(CSc3nc4nc(C)cc(C)n4n3)cs2)cc1OC` [Compound C32], the IC50 was more than 1000 µM.

Take `COc1ccccc1-c1nc(C(=O)N2CCCC(C(C)N)C2)cs1` (stereo not shown) [Compound C46]: the IC50 is more than 1000 µM.

On to `O=C(O)c1csc(-c2ccccc2Cl)n1` [Compound C42], for which the IC50 is more than 1000 µM.

On to `COc1cccc(Nc2nnc(SCc3csc(-c4ccc(OC)c(OC)c4)n3)s2)c1` [Compound C39], for which the IC50 is more than 1000 µM.

With `O=C(O)c1csc(-c2ccc(Cl)cc2Cl)n1` [Compound C5], the IC50 lay in the range of 500 to 1000 µM.

As for `Clc1ccc(-c2nc(CSc3nncs3)cs2)cc1` [Compound C27], the IC50 was more than 1000 µM.

The assay is the same for the next values; noted with them: Table 4; 0.25 nM SHP2, 0.5 μM IRS1_pY1172(dPEG8)pY1222 peptide, DiFMUP 100 μM.
Regarding `CC1(N)CCN(c2ncnc3c(-c4cccc(Cl)c4Cl)csc23)CC1` [Compound D1, 1-(7-(2,3-dichlorophenyl)thieno[3,2-d]pyrimidin-4-yl)-4-methylpiperidin-4-amine formate], the IC50 fell in the range of 1 to 10 µM.

Still in this assay, the particulars now being: Table 5; 0.25 nM SHP2, 0.5 μM IRS1_pY1172(dPEG8)pY1222 peptide, DiFMUP 100 μM.
`Clc1ccccc1-c1coc2ccnn12` [Compound E4, 3-(2-chlorophenyl)pyrazolo[5,1-b]oxazole] returned an IC50 of more than 100 µM.

Consider `CC1(N)CCN(c2cnn3c(-c4ccccc4Cl)coc23)CC1` [Compound E1, 1-(3-(2-chlorophenyl)pyrazolo[5,1-b]oxazol-7-yl)-4-methylpiperidin-4-amine formate], for which the half-inhibitory concentration (IC50) fell in the range of 50 to 100 µM.

The assay is the same for the next values; noted with them: Table 6; 0.25 nM SHP2, 0.5 μM IRS1_pY1172(dPEG8)pY1222 peptide, DiFMUP 100 μM.
Compound `C[C@@H]1OCC2(CCN(c3nc4[nH]nc(N5CCc6ncccc65)c4c(=O)n3C)CC2)[C@@H]1N` [Compound F11, 6-[(3S,4S)-4-amino-3-methyl-2-oxa-8-azaspiro[4.5]decan-8-yl]-5-methyl-3-{1H,2H,3H-pyrrolo[3,2-b]pyridin-1-yl}-1H,4H,5H-pyrazolo[3,4-d]pyrimidin-4-one formate] came in with an IC50 of 1 to 20 µM.

The compound `Cn1c(N2CCC(C)(CN)CC2)nc2[nH]nc(Sc3cccc(Cl)c3)c2c1=O` [Compound F8, 6-(4-(aminomethyl)-4-methylpiperidin-1-yl)-3-((3-chlorophenyl)thio)-5-methyl-1H-pyrazolo[3,4-d]pyrimidin-4(5H)-one] returned an IC50 of less than 1 µM.

For the compound `C[C@@H]1OCC2(CCN(c3nc4[nH]nc(N5CCc6ccccc6C5)c4c(=O)n3C)CC2)[C@@H]1N` [Compound F12, 6-[(3S,4S)-4-amino-3-methyl-2-oxa-8-azaspiro[4.5]decan-8-yl]-5-methyl-3-(1,2,3,4-tetrahydroisoquinolin-2-yl)-1H,4H,5H-pyrazolo[3,4-d]pyrimidin-4-one], the IC50 was less than 1 µM.

For the origin of these results see patent US20200392161A1, “SHP2 PHOSPHATASE INHIBITORS AND METHODS OF USE THEREOF” (Relay Therapeutics, Inc., priority 2018, published 2020).
